Here are results for 6 compounds from US4100284A, “1,4-Dioxo- and 4-oxoquinoxaline-2-carboxaldehyde sulfonylhydrazones and certain derivatives thereof” (Pfizer Inc., priority 1977, dated 1978).

Assay [1] relates to E. Coli. Nature of the assay: In vitro antibacterial activity, two-fold serial dilution in Brain-Heart Infusion broth (MIC). Type of assay: cell-based. Conditions: Escherichia coli, anaerobic, overnight. As to the method:
(§1) The broth is inoculated with bacteria, and with the test compound of formula (I), and then it is incubated overnight under anaerobic conditions. On the next day, the test is read visually. The minimum inhibitory concentration (MIC) of test compound is the lowest concentration which prevents turbidity, i.e., which prevents growth of the microoganism.

Assay [2] deals with Pasteurella multocida. The assay is described as above. In kind it is cell-based. Conditions: anaerobic, overnight. The protocol: as §1
Assay [3] has as its system Salmonella cholerasuis. The description is as above. Type of assay: cell-based. The note with it: anaerobic, overnight. The protocol: as §1
Assay [4] has as its system Staph. aureus. The assay is described as above. In kind it is cell-based. Conditions: Staphylococcus aureus, anaerobic, overnight. As to the method: as §1
In assay [5] the test system is Strep. pyogenes. Described as above. The note with it: Streptococcus pyogenes, anaerobic, overnight. Type of assay: cell-based. The protocol: as §1
Assay [6] deals with Salmonella cholerasuis. Nature of the assay: In vivo protection of mice against a lethal challenge of Salmonella cholerasuis. Conditions: at 25 mg./Kg., multiple dosing. As to the method: The compounds of formula (I) also show antibacterial activity in vivo. In determining such activity, the test compound is administered to mice which have been infected by intraperitoneal injection of a lethal inoculum of pathogenic bacteria. The test compound is administered using a multiple dosing regimen, and using either the oral (PO) or the subcutaneous (SC) route. The inoculum of bacteria varies from one to about ten times the amount needed to kill 100% of the mice, under the conditions of the test. At the end of the test, the activity of a compound is assessed by counting the number of survivors among the treated animals. Results are also given in Table I, wherein the ability of the compound to protect mice against a lethal challenge of Salmonella cholerasuis is presented.

Molecules are shown by their SMILES. Values after ≈ are worked out from the molar mass of the structure shown.

By MIC is commonly meant the lowest concentration found to suppress growth. Higher therefore signals a less susceptible organism. For `Cc1ccc(S(=O)(=O)NN=Cc2c[n+]([O-])c3ccccc3[n+]2[O-])cc1` [N → O, H, H, 4-CH3 C6 H4, 1,4-Dioxoquinoxaline-2-carboxaldehyde p-Toluenesulfonylhydrazone], the MIC stood at 1.56 µg/mL (≈ 4.35 µM) in assay [1]; 3.12 µg/mL (≈ 8.72 µM) in assay [2]; 6.25 µg/mL (≈ 17.4 µM) in assay [3]; 25 µg/mL (≈ 69.8 µM) in assay [4]; 12.5 µg/mL (≈ 34.9 µM) in assay [5]. Further, the “% Survivors vs. Sal. Cholarasuis, PO” value in assay [6] is listed as 30%. The “% Survivors vs. Sal. Cholarasuis, SC” value in assay [6] was 100%.
For the compound `O=S(=O)(NN=Cc1c[n+]([O-])c2ccccc2[n+]1[O-])c1ccc(F)cc1` [N → O, H, H, 4-FC6 H4], the minimal inhibitory concentration (MIC) was 3.12 µg/mL (≈ 8.62 µM) in assay [1]; 3.12 µg/mL (≈ 8.62 µM) in assay [2]; 6.25 µg/mL (≈ 17.2 µM) in assay [3]; 25 µg/mL (≈ 69 µM) in assay [4]; 12.5 µg/mL (≈ 34.5 µM) in assay [5]. The “% Survivors vs. Sal. Cholarasuis, PO” value in assay [6] is 10%. In addition, in assay [6], the “% Survivors vs. Sal. Cholarasuis, SC” value came out at 30%.
As to `O=S(=O)(NN=Cc1c[n+]([O-])c2ccccc2[n+]1[O-])c1ccccc1` [N → O, H, H, C6 H5, 1,4-Dioxoquinoxaline-2-carboxaldehyde Benzenesulfonylhydrazone], the MIC in assay [1] turned out to be 12.5 µg/mL (≈ 36.3 µM); in assay [2] it was 12.5 µg/mL (≈ 36.3 µM); in assay [3], 12.5 µg/mL (≈ 36.3 µM); in assay [4], 100 µg/mL (≈ 290 µM); in assay [5] it was 25 µg/mL (≈ 72.6 µM).
Regarding `CS(=O)(=O)NN=Cc1c[n+]([O-])c2ccccc2[n+]1[O-]` [N → O, H, H, CH3], the MIC in assay [1] was 3.12 µg/mL (≈ 11.1 µM); in assay [2] it was 12.5 µg/mL (≈ 44.3 µM); in assay [3] it was 6.25 µg/mL (≈ 22.1 µM); in assay [4], 25 µg/mL (≈ 88.6 µM); in assay [5] it was 12.5 µg/mL (≈ 44.3 µM). Further, the “% Survivors vs. Sal. Cholarasuis, PO” value in assay [6] is given as 10%. For the same compound, the “% Survivors vs. Sal. Cholarasuis, SC” value in assay [6] is 60%.
Take `Cc1ccc(S(=O)(=O)NN=Cc2c[n+]([O-])c3ccccc3n2)cc1` [N, H, H, 4-CH3 C6 H4, 4-Oxoquinoxaline-2-carboxaldehyde p-Toluenesulfonylhydrazone]: the minimal inhibitory concentration (MIC) in assay [1] is 3.12 µg/mL (≈ 9.13 µM); in assay [2] it was 3.12 µg/mL (≈ 9.13 µM); in assay [3], 3.12 µg/mL (≈ 9.13 µM); in assay [4] it was 25 µg/mL (≈ 73 µM); in assay [5], 12.5 µg/mL (≈ 36.5 µM). For the same compound, the “% Survivors vs. Sal. Cholarasuis, PO” value in assay [6] is listed as 60%. The “% Survivors vs. Sal. Cholarasuis, SC” value in assay [6] is given as 100%.
Regarding `COc1ccc(S(=O)(=O)NN=Cc2c[n+]([O-])c3ccccc3n2)cc1` [N, H, H, 4-CH3 OC6 H4, 4-Oxoquinoxaline-2-carboxaldehyde p-Methoxybenzenesulfonylhydrazone], the MIC in assay [1] amounted to 3.12 µg/mL (≈ 8.72 µM); in assay [2], 1.56 µg/mL (≈ 4.35 µM); in assay [3], 6.25 µg/mL (≈ 17.4 µM); in assay [4], 12.5 µg/mL (≈ 34.9 µM); in assay [5] it was 6.25 µg/mL (≈ 17.4 µM).
